What all share (format): cell-based, human
One assay has as its system hEPSCs. Kind of assay: Screening of growth factors and inhibitors in hEPSC 3D culture. The note with it: grown for 5 days without the named substance (condition 2 / condition 3). The protocol: Next, various growth factors, cytokines, and small molecules were screened at widely adopted concentrations, to identify conditions facilitating cavity and early-lineage formation in these structures (FIG. 7A-FIG. 7E). […] Additionally, the cells were pulsed with the ALK5 kinase inhibitor A83-01 (2 μM) to promote TE differentiation for the first 48h of 3D culture, and this inhibitor was removed after this time to avoid a complete loss in pluripotency. Concomitantly, the concentration of FGF2 was decreased by half (20 ng/ml) for the same purpose. Using this optimized condition, the emergence of cavitated structures was observed, 3 to 4 days after cell seeding (FIG. 1D).
Post incubation on gelatin plates, cells were counted using a haemocytometer and a total of 7200 hEPSCs was added to 1 mL of media composed of 50% IVF media (Continuous Single Culture-NX Complete (CSCM-NXC)) (90168, FUJIFILM), 25% hEP media, and 25% hTS media. This media was also supplemented with CHIR99021 (2 μM), Y27632 (5 μM), BMP4 (20 ng/mL), FGF2 (40 ng/mL), and A83-01 (2 μM). Cell suspensions were added dropwise to the Aggrewells. All wells without cells were filled with 1 mL PBS to humidify the local atmosphere to minimize evaporation. The AggreWell plate (24-well, 1200 Aggrewell format) was then centrifuged for 3 min at 100 g, and placed at 37° C. under hypoxic conditions (5% CO2 and 5% O2). […]

For the next assay, the system named is hEPSC aggregates. Kind of assay: PLC inhibition in hEPSC 3D cultures: immunofluorescence quantification of nuclear GATA3 and apical PARD6. The note with it: hEPSC 3D cultures treated with 2 μM and 3 μM, vs control without inhibitor. The protocol:
The PLC-Protein Kinase C (PKC) pathway controls cellular polarisation at early stages of mouse embryo development. hEPSC 3D cultures were treated with 2 μM and 3 μM of the PLC inhibitor, U73122. […] To confirm the relationship between polarisation and outer cell commitment, siRNA transfection was used to knockdown (KD) PLCB1 in order to deplete PLC activity in cells during 3D aggregation (FIG. 2F). The depletion of PLC activity was confirmed by qRT-PCR to confirm that RNAi depletion of PLCB1 was effective (FIG. 8C).
Post incubation on gelatin plates, cells were counted using a haemocytometer and a total of 7200 hEPSCs was added to 1 mL of media composed of 50% IVF media (Continuous Single Culture-NX Complete (CSCM-NXC)) (90168, FUJIFILM), 25% hEP media, and 25% hTS media. This media was also supplemented with CHIR99021 (2 μM), Y27632 (5 μM), BMP4 (20 ng/mL), FGF2 (40 ng/mL), and A83-01 (2 μM). […]
Fluorescence images were acquired with an inverted Leica SP8 confocal microscope (Leica Microsystems), using a Leica Fluotar VISIR 0.95 NA 25× objective. […] Digital quantifications and immunofluorescence signal intensity graphs were obtained using Fiji software.
Apical enrichment analysis: F-actin and PARD6 polarisation were measured in a single focal plane, by taking the middle plane of the aggregate. […] The apical/basal signal intensity ratio was calculated as: I (apical)/I (basal). […]

The subject of the next assay is hEP-structures. Kind of assay: Frequency of cavitated structures in WNT3A-supplemented 3D culture. The following applies: day 6; WNT3A at 25 or 50 ng/mL added to culture media; vs control. The protocol: Post incubation on gelatin plates, cells were counted using a haemocytometer and a total of 7200 hEPSCs was added to 1 mL of media composed of 50% IVF media (Continuous Single Culture-NX Complete (CSCM-NXC)) (90168, FUJIFILM), 25% hEP media, and 25% hTS media. This media was also supplemented with CHIR99021 (2 μM), Y27632 (5 μM), BMP4 (20 ng/mL), FGF2 (40 ng/mL), and A83-01 (2 μM). Cell suspensions were added dropwise to the Aggrewells. All wells without cells were filled with 1 mL PBS to humidify the local atmosphere to minimize evaporation. The AggreWell plate (24-well, 1200 Aggrewell format) was then centrifuged for 3 min at 100 g, and placed at 37° C. under hypoxic conditions (5% CO2 and 5% O2). After 48h, media was removed from wells and replaced with fresh culture media as described above, although FGF2 concentration was lowered to 20 ng/ml and A83-01 was omitted. Cells were left to grow for an additional 48-72h until proper morphology was observed, at which point structures were fixed for immunostaining or transferred to IVC media (see below) for mimicking development beyond implantation stages.
Following completion of any given aggregation experiment (from day 4 to 6), all cystic structures clearly displaying a cavity were included in further analyses. Non-cavitated structures were excluded from downstream analyses.

The source of these data is patent US12467917B2, “Reconstructing human early embryogenesis in vitro with pluripotent stem cells” (California Institute of Technology, priority 2021, dated 2025).

For `Cc1c[nH]c(-c2cnc(NCCNc3ccc(C#N)cn3)nc2-c2ccc(Cl)cc2Cl)n1` [CHIR99021], in the assay with hEPSCs, the “cell survival in media without the substance” value is on record as “failure of cell survival”.
As for `COc1ccc2c(c1)CC[C@@H]1[C@@H]2CC[C@]2(C)[C@@H](NCCCCCCN3C(=O)C=CC3=O)CC[C@@H]12` [U73122], the “nuclear GATA3 signal intensity” value with hEPSC aggregates (normalized to DAPI) was “reduction”. In the assay with hEPSC aggregates, the “apical enrichment of PARD6” value is given as “decrease”.
Take `C[C@@H](N)[C@H]1CC[C@H](C(=O)Nc2ccncc2)CC1.Cl.Cl` [Y-27632, trans-4-[(R)-1-Aminoethyl]-N-4-pyridinylcyclohexanecarboxamide dihydrochloride]: the “cell survival in media without the substance” value with hEPSCs is listed as “failure of cell survival”.

B1: WNT3A: Wnt3a recombinant protein, WNT signaling pathway activator added to the culture media (protein, UniProt P56704 19-352, looked up)
Protein Wnt-3a: SYPIWWSLAVGPQYSSLGSQPILCASIPGLVPKQLRFCRNYVEIMPSVAEGIKIGIQECQHQFRGRRWNCTTVHDSLAIFGPVLDKATRESAFVHAIASAGVAFAVTRSCAEGTAAICGCSSRHQGSPGKGWKWGGCSEDIEFGGMVSREFADARENRPDARSAMNRHNNEAGRQAIASHMHLKCKCHGLSGSCEVKTCWWSQPDFRAIGDFLKDKYDSASEMVVEKHRESRGWVETLRPRYTYFKVPTERDLVYYEASPNFCEPNPETGSFGTRDRTCNVSSHGIDGCDLLCCGRGHNARAERRREKCRCVFHWCCYVSCQECTRVYDVHTCK
Consider B1, for which the “yield (frequency) of cavitated structures” value in the assay with hEP-structures is given as “did not make any significant difference”.
